Test system: tissue ingrowth, specifically angiogenesis and vascularization
Conditions: for conclusion on stimulation of wound healing: selenium at 0.25 ng/mm^3 of the implant, cobalt at 0.45 ng per mm^3 of the implant; for wound tissue / tissue ingrowth in the pores (histological sections): 3 μl per half implant of 70 μM salt in Hank's balanced salt solution on the closed pore
Experimental: Brushite and hydroxyapatite cuboid bioimplants (434±4 mg dry weight) with a 2D branched structure (Y-shape pore) were produced by cement printing following a method previously developed (Hölzel, 2005). The pore was 1.31 mm diameter and open in the middle of one smaller face and decreased in diameter to 1 mm as it branched in the centre of the block. One branch emerged on an adjacent face while the other was a ‘blind’ closed pore. 5 μl of 70 μM copper sulphate solution was deposited at the end of the blind closed pore of the Y as represented in FIG. 2B. This solution thus contained a total of […] of copper sulphate, i.e. 22 ng of copper ions. It was absorbed onto a small localised volume ca 5 mm^3, of the implant of dimensions 8×8×4 mm, (approximately 250 mm^3). This copper thus represented 88 ng per cm^3.
Brushite and hydroxyapatite materials were implanted in animals for 15 days in order to observe tissue ingrowth, specifically angiogenesis and vascularization. In order to facilitate observation of tissue ingrowth the implants were made in two mirror image halves that keyed into one another and split the pore cavity along its symmetrical axis (FIG. 2). A 5 μl solution of copper sulfate at low concentration (0.07 mM) was deposited at the end of the closed pore, dried, and implanted in the abdominal cavity (i.e., intraperitoneally) in mice for 15 days. The retrieved implants were opened and examined for tissue ingrowth (FIG. 2C). […] This is in comparison to control implants with no adsorption of copper (FIG. 2D).
Similar to the implants with copper as described above, solutions (3 μl per half implant) of manganese chloride, sodium selenium, silver nitrate, zinc chloride, and cobalt chloride diluted in Hank's balanced salt solution (vehicle) were adsorbed on the closed pore on each half. They were used respectively at 70 μM. The final amounts of the metals ranged from 10 to 200 ng per implant. These conditions were compared to vehicle (HBBS) as control and copper (70 μM)
After 15 days of implantation in peritoneal site in mice, the implants were retrieved and histological sections of the tissue ingrowth in the pores were processed.

[1] = 3 μl per half implant of 70 μM salt on the closed pore, 15 days peritoneal site in mice
[2] = 15 days peritoneal site in mice

Compound: [Cl][Co][Cl] [cobalt, cobalt chloride]
- microvessels by histology [1]: microvessels with transgression of inflammatory cells were observed
- conclusion on stimulation of wound healing: enhances particularly blood vessel formation

Compound: O=S(=O)([O-])[O-].[Cu+2] [copper sulfate]
- blood vessels observed (mouse, in vivo): No blood vessels were observed
- concentrations of copper suitable to encourage endothelial cell growth into a 1.3 mm diameter pore opening at the surface of an implant (mouse, in vivo): below 20 μg/mm^3
- mean blood vessel in-growth distance (mouse, in vivo): 4.3 mm
- mean distance over which blood vessels were observed to grow from the large pore opening to the closed pore end (mouse, in vivo): nearly the entire length
- tissue infiltrating the pore (mouse, in vivo): tissue rich in leukocytes and dead cells
- tissue ingrowth in the pores (mouse, in vivo): vascular tissue

Compound: O=[Se]([O-])[O-].[Na+].[Na+] [selenium, sodium selenium]
- wound tissue / tissue ingrowth in the pores (histological sections) [2]: immature wound tissue
- orientation of tissue ingrowth towards the closed (loaded) pore [1]: oriented towards the closed pore
- conclusion on stimulation of wound healing: may enhance tissue maturation

Compound: O=[N+]([O-])[O-].[Ag+] [silver, silver nitrate]
- orientation of tissue ingrowth towards the closed (loaded) pore [1]: no orientation towards the closed pore

Compound: [Cl-].[Cl-].[Zn+2] [zinc, zinc chloride]
- orientation of tissue ingrowth towards the closed (loaded) pore [1]: no orientation towards the closed pore

Compound: VEGF
- mean blood vessel in-growth distance (mouse, in vivo): 3.7 mm
- mean distance over which blood vessels were observed to grow from the large pore opening to the closed pore end (mouse, in vivo): nearly the entire length

Compound: manganese chloride
- wound tissue / tissue ingrowth in the pores (histological sections) [2]: a bloody tissue was formed in the pores

— patent US20090220566A1, “BIOIMPLANTS FOR USE IN TISSUE GROWTH” (priority 2006, published 2009)
